# Test results taken from patent US10738028B2, “Spiro three-membered ring, spiro five-membered ring peptide deformylase inhibitor and use thereof in antibacteria and anti-tumor” (priority 2016, dated 2020).
# Read-outs that look alike come from different tables or passages of the source.
# Legend:
# Type in all cases: cell-based
# [1] = system: Enterococcus faecalis (EFA); experiment: MIC, two-fold agar dilution (CLSI), clinical isolates
# In short: (§1)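 Samples are serially diluted two-fold in agar following CLSI guidance. Plates are then inoculated with the tested strains. The lowest inhibiting concentration is recorded as MIC.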
# [2] = system: Enterococcus faecium (EFM); experiment: as above
# In short: as §1
# [3] = system: Escherichia coli (including ESBLs, non-ESBLs); experiment: as above
# In short: as §1
# [4] = system: Moraxella catarrhalis (BCA); experiment: as above; settings: for MIC: Moraxella catarrhalis; for Anti-bacterial activity (MIC), strain BCA 14-10: clinical isolate BCA 14-10
# In short: as §1
# [5] = system: Streptococcus pneoumoniae (SPN); experiment: as above
# In short: as §1
# [6] = system: methicillin-resistant Staphylococcus aureus (MRSA); experiment: as above
# In short: as §1
# [7] = system: methicillin-resistant Staphylococcus epidermidis (MRSE); experiment: as above
# In short: as §1
# [8] = system: methicillin-sensitive Staphylococcus aureus (MSSA); experiment: as above
# In short: as §1
# [9] = system: methicillin-sensitive Staphylococcus epidermidis (MSSE); experiment: as above
# In short: as §1
# [10] = system: HCT-116 colorectal cancer cell line; experiment: CCK-8 proliferation inhibition; settings: concentration of 30 μM, 72 hours, CCK-8; for inhibition at 30 µM: Homo sapiens, HCT-116, 72 h
# In short: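 Cells were plated overnight at 2000 cells/well, then compound in culture medium was added at a range of final concentrations. After 72 hours in a CO2 incubator, medium was replaced with 1:10 CCK-8 solution for the read-out.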
# [11] = system: A549 lung cancer cell line; experiment: CCK-8 proliferation inhibition; settings: Homo sapiens, A549, 72 h, concentration of 30 μM
# In short: (§2)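 Plating at 2000 cells/well, then incubation overnight at 37° C. Next, a range of compound concentrations for 72 hours (control 1‰ DMSO). Finally, medium decanted and CCK-8 diluted 1:10 added.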
# [12] = system: BEL-7402 liver cancer cell line; experiment: CCK-8 proliferation inhibition; settings: concentration of 30 μM; for Inhibition of proliferation, Liver cancer BEL-7402: 72 hours, 30 µM
# In short: as §2
# [13] = system: MGC-803 gastric cancer cell line; experiment: CCK-8 proliferation inhibition; settings: concentration of 30 μM; for inhibition at 30 µM: Homo sapiens, MGC-803, 72 h
# In short: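 Proliferation was measured with 1:10 diluted CCK-8 after a 72-hour incubation with the inhibitors at various final concentrations, using 1‰ DMSO as the control. Cells were plated at 2000 per well. Culture media contained 10% newborn bovine serum: 1640 for Jurkat and MGC-803, F12 for PC3, DMEM high glucose for MCF-7.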
# [14] = MIC in vitro anti-bacterial experiments, Gram-positive bacteria; settings: lowest MIC reached; read-out: minimum inhibitory concentration against Gram-positive bacteria
# Text: 1. The invention adopts the two-fold agar dilution method recommended by the operating procedure of antimicrobial susceptibility testing set by American Clinical and Laboratory Standards Institute (CLSI) to determine the Minimum Inhibitory Concentration (MIC) of the test samples against the tested strains.
# [15] = read-out: HCT116 inhibition rate/%
structure (smiles),measurement,setting,value
Cc1csc(NC(=O)[C@@H]2CC3(CC3)CN2C(=O)[C@H](CC2CCCC2)CN(O)C=O)n1 [Example 33],MIC (anti-bacterial activity),[1]; strain EFA 15-1,1 µg/mL
same,MIC (anti-bacterial activity),[1]; strain EFA 15-2,1 µg/mL
same,MIC (anti-bacterial activity),[1]; strain EFA 15-3,1 µg/mL
same,MIC (anti-bacterial activity),[1]; strain EFA 15-4,1 µg/mL
same,MIC (anti-bacterial activity),[1]; strain EFA 15-5,1 µg/mL
same,MIC (anti-bacterial activity),[1]; strain EFA 15-6,1 µg/mL
same,MIC (anti-bacterial activity),[1]; strain EFA 15-9,1 µg/mL
same,MIC (anti-bacterial activity),[2]; strain EFM 15-1,0.5 µg/mL
same,MIC (anti-bacterial activity),[2]; strain EFM 15-2,0.5 µg/mL
same,MIC (anti-bacterial activity),[2]; strain EFM 15-3,0.125 µg/mL
same,MIC (anti-bacterial activity),[2]; strain EFM 15-4,0.5 µg/mL
same,MIC (anti-bacterial activity),[2]; strain EFM 15-5,0.5 µg/mL
same,MIC (anti-bacterial activity),[2]; strain EFM 15-6,0.5 µg/mL
same,MIC (anti-bacterial activity),[3]; strain ECO+ 15-1,> 32 µg/mL
same,MIC (anti-bacterial activity),[3]; strain ECO+ 15-2,> 32 µg/mL
same,MIC (anti-bacterial activity),[3]; strain ECO+ 15-3,> 32 µg/mL
same,MIC (anti-bacterial activity),[3]; strain ECO+ 15-4,> 32 µg/mL
same,MIC (anti-bacterial activity),[3]; strain ECO− 15-1,> 32 µg/mL
same,MIC (anti-bacterial activity),[3]; strain ECO− 15-2,> 32 µg/mL
same,MIC (anti-bacterial activity),[3]; strain ECO− 15-3,> 32 µg/mL
same,MIC (anti-bacterial activity),[3]; strain ECO− 15-4,> 32 µg/mL
same,MIC,"[4]; 7 clinical isolates, range over strains, read-out: Moraxella catarrhalis (n = 7) MIC",0.06 to 0.25 µg/mL
same,MIC,"[4]; lowest MIC reached, read-out: minimum inhibitory concentration against Moraxella catarrhalis, as low as",≥ 0.06 µg/mL
same,"Anti-bacterial activity (MIC), strain BCA 14-10",[4],0.06 µg/mL
same,MIC (anti-bacterial activity),[4]; strain BCA 14-1,0.25 µg/mL
same,MIC (anti-bacterial activity),[4]; strain BCA 14-4,0.25 µg/mL
same,MIC (anti-bacterial activity),[4]; strain BCA 14-5,0.06 µg/mL
same,MIC (anti-bacterial activity),[4]; strain BCA 14-6,0.06 µg/mL
same,MIC (anti-bacterial activity),[4]; strain BCA 14-7,0.03 µg/mL
same,MIC (anti-bacterial activity),[4]; strain BCA 14-8,0.125 µg/mL
same,MIC (anti-bacterial activity),[5]; strain SPN 16-2,0.06 µg/mL
same,MIC (anti-bacterial activity),[5]; strain SPN 16-4,1 µg/mL
same,MIC (anti-bacterial activity),[6]; strain MRSA 15-1,0.03 µg/mL
same,MIC (anti-bacterial activity),[6]; strain MRSA 15-2,0.06 µg/mL
same,MIC (anti-bacterial activity),[6]; strain MRSA 15-3,< 0.008 µg/mL
same,MIC (anti-bacterial activity),[6]; strain MRSA 15-4,0.06 µg/mL
same,MIC (anti-bacterial activity),[7]; strain MRSE 15-1,0.015 µg/mL
same,MIC (anti-bacterial activity),[7]; strain MRSE 15-2,0.125 µg/mL
same,MIC (anti-bacterial activity),[7]; strain MRSE 15-3,0.125 µg/mL
same,MIC (anti-bacterial activity),[7]; strain MRSE 15-7,0.125 µg/mL
same,MIC (anti-bacterial activity),[8]; strain MSSA 15-3,0.06 µg/mL
same,MIC (anti-bacterial activity),[8]; strain MSSA 15-4,0.03 µg/mL
same,MIC (anti-bacterial activity),[8]; strain MSSA 15-5,0.03 µg/mL
same,MIC (anti-bacterial activity),[8]; strain MSSA 15-6,0.06 µg/mL
same,MIC (anti-bacterial activity),[9]; strain MSSE 15-3,0.125 µg/mL
same,MIC (anti-bacterial activity),[9]; strain MSSE 15-4,0.125 µg/mL
same,MIC (anti-bacterial activity),[9]; strain MSSE 15-5,0.125 µg/mL
same,MIC (anti-bacterial activity),[9]; strain MSSE 15-6,0.03 µg/mL
same,inhibition at 30 µM,"[10]; Table 5, read-out: Inhibition of proliferation, Colorectal cancer HCT116",≥ 30%
same,inhibition at 30 µM,[10]; [15],31%
same,inhibition at 30 µM,[11],20%
same,inhibition at 30 µM,"[12]; Homo sapiens, Bel-7402, 72 h",> 50%
same,"Inhibition of proliferation, Liver cancer BEL-7402",[12],57%
same,inhibition at 30 µM,[13],27%
same,MIC,[14],< 0.008 µg/mL
CC(C)(C)c1cc(NC(=O)[C@@H]2CC3(CC3)CN2C(=O)[C@H](CC2CCCC2)CN(O)C=O)no1 [Example 38],MIC (anti-bacterial activity),[1]; strain EFA 15-1,4 µg/mL
same,MIC (anti-bacterial activity),[1]; strain EFA 15-2,4 µg/mL
same,MIC (anti-bacterial activity),[1]; strain EFA 15-3,0.25 µg/mL
same,MIC (anti-bacterial activity),[1]; strain EFA 15-4,4 µg/mL
same,MIC (anti-bacterial activity),[1]; strain EFA 15-5,4 µg/mL
same,MIC (anti-bacterial activity),[1]; strain EFA 15-6,4 µg/mL
same,MIC (anti-bacterial activity),[1]; strain EFA 15-9,4 µg/mL
same,MIC (anti-bacterial activity),[2]; strain EFM 15-1,0.25 µg/mL
same,MIC (anti-bacterial activity),[2]; strain EFM 15-2,0.25 µg/mL
same,MIC (anti-bacterial activity),[2]; strain EFM 15-3,0.25 µg/mL
same,MIC (anti-bacterial activity),[2]; strain EFM 15-4,0.5 µg/mL
same,MIC (anti-bacterial activity),[2]; strain EFM 15-5,0.25 µg/mL
same,MIC (anti-bacterial activity),[2]; strain EFM 15-6,0.5 µg/mL
same,MIC (anti-bacterial activity),[3]; strain ECO+ 15-1,16 µg/mL
same,MIC (anti-bacterial activity),[3]; strain ECO+ 15-2,32 µg/mL
same,MIC (anti-bacterial activity),[3]; strain ECO+ 15-3,16 µg/mL
same,MIC (anti-bacterial activity),[3]; strain ECO+ 15-4,16 µg/mL
same,MIC (anti-bacterial activity),[3]; strain ECO− 15-1,16 µg/mL
same,MIC (anti-bacterial activity),[3]; strain ECO− 15-2,32 µg/mL
same,MIC (anti-bacterial activity),[3]; strain ECO− 15-3,32 µg/mL
same,MIC (anti-bacterial activity),[3]; strain ECO− 15-4,32 µg/mL
same,"Anti-bacterial activity (MIC), strain BCA 14-10",[4],0.25 µg/mL
same,MIC (anti-bacterial activity),[4]; strain BCA 14-1,0.25 µg/mL
same,MIC (anti-bacterial activity),[4]; strain BCA 14-4,1 µg/mL
same,MIC (anti-bacterial activity),[4]; strain BCA 14-5,0.5 µg/mL
same,MIC (anti-bacterial activity),[4]; strain BCA 14-6,1 µg/mL
same,MIC (anti-bacterial activity),[4]; strain BCA 14-7,0.25 µg/mL
same,MIC (anti-bacterial activity),[4]; strain BCA 14-8,0.25 µg/mL
same,MIC (anti-bacterial activity),[5]; strain SPN 16-2,0.25 µg/mL
same,MIC (anti-bacterial activity),[5]; strain SPN 16-4,0.5 µg/mL
same,MIC (anti-bacterial activity),[6]; strain MRSA 15-1,0.125 µg/mL
same,MIC (anti-bacterial activity),[6]; strain MRSA 15-2,0.125 µg/mL
same,MIC (anti-bacterial activity),[6]; strain MRSA 15-3,0.125 µg/mL
same,MIC (anti-bacterial activity),[6]; strain MRSA 15-4,0.25 µg/mL
same,MIC (anti-bacterial activity),[7]; strain MRSE 15-1,0.25 µg/mL
same,MIC (anti-bacterial activity),[7]; strain MRSE 15-2,0.25 µg/mL
same,MIC (anti-bacterial activity),[7]; strain MRSE 15-3,0.25 µg/mL
same,MIC (anti-bacterial activity),[7]; strain MRSE 15-7,0.25 µg/mL
same,MIC (anti-bacterial activity),[8]; strain MSSA 15-3,0.25 µg/mL
same,MIC (anti-bacterial activity),[8]; strain MSSA 15-4,0.25 µg/mL
same,MIC (anti-bacterial activity),[8]; strain MSSA 15-5,0.125 µg/mL
same,MIC (anti-bacterial activity),[8]; strain MSSA 15-6,0.125 µg/mL
same,MIC (anti-bacterial activity),[9]; strain MSSE 15-3,0.25 µg/mL
same,MIC (anti-bacterial activity),[9]; strain MSSE 15-4,0.25 µg/mL
same,MIC (anti-bacterial activity),[9]; strain MSSE 15-5,0.25 µg/mL
same,MIC (anti-bacterial activity),[9]; strain MSSE 15-6,< 0.008 µg/mL
same,inhibition at 30 µM,[10]; [15],> 50%
same,HCT116 inhibition rate/%,[10]; 30 µM,52%
same,inhibition at 30 µM,[11],38%
same,"Inhibition of proliferation, Liver cancer BEL-7402",[12],75%
same,inhibition at 30 µM,[13],> 50%
same,"Inhibition of proliferation, Gastric cancer MGC-803","[13]; 72 hours, 30 µM",50%
same,MIC,[14],< 0.008 µg/mL
